In US4025644A, “Tyrosine derivatives and use” (Daiichi Seiyaku Co., Ltd., priority 1974, dated 1977) one finds Relative therapeutic effect and LD50 data, which are given here for 18 compounds.

Peptide text beside a SMILES is read from it. * marks the point of attachment. Bz = O=C(c1ccccc1)* A value given as a limit tells only on which side of the number the result lay.

By LD50 is commonly meant the dose expected to kill half of the subjects tested. Read a low LD50 as a more toxic substance.

In data set [1] the test system is acetic acid ulcers in rats. Kind of data set: Anti-ulcerous effect on acetic acid-induced experimental gastric ulcers in rats (oral for 13 days from the day after ulceration), Table I. Format: in vivo, Donryu-strain male rats. The note with it: relative to glutamine. The source says: The anti-ulcerous effects of the object compounds of this invention have been confirmed in tests on ulcers in rats. The ulcers were produced according to the method of K. Takagi, S. Okabe and R. Saziki, by the effect of acetic acid on the digestive organs (Japanese Journal of Pharmacology vol. 19 pages 418-426 (1969), Yakkyoku vol. 25 pages 1453-1459 (1974) and Experientia vol. 27 pages 146-148 (1971). It is known that this experimental ulcer resembles human peptic ulcers with respect to the overall and histological findings and as to the recovery process. The experimental details confirming the anti-ulcerous effect are as follows.
Donryu-strain male rats having a body weight -- 230-270g (ten rats to a group) were not fed for 24 hours and then were anesthesized with ether. A laparotomy was performed. The stomach was exposed and 0.05 ml of 10% acetic acid was injected into the subserosal layer in the glandular part of the anterior wall to produce the experimental ulcers. The abdomen was then closed. Beginning on the day after the ulceration, the compounds of this invention were orally administered to the rats for 13 days. The rats were fed normally and sacrificed on the 15th day after the ulcer formation. The size of the ulcer (length and width) in the glandular part of the stomach was measured and the product of the length and width was used as the ulcer index (UI). The curative ratio (%) was calculated from the ulcer index of the rats which were medicated as compared with the index of the control group. [formula]
For the purpose of comparing the effects with those of known drugs, the therapeutic effects of the compounds of this invention, tyrosine itself and gefarnate relative to those of glutamine were calculated and are listed in Table I. Of these compounds, gefarnate (geranyl farnesylacetate,U.S. Pat. No. 3,154,570 (1964) and glutamine are known anti-ulcerous drugs.

Data set [2] in a line: Acute toxicity, oral, mice. The note with it: in vivo, mouse p.o.
In data set [3] the test system is chronic acetic acid ulcers in rats. Nature of the data set: Anti-ulcerous effect on chronic acetic acid ulcers in rats (oral, 41st to 54th day after ulceration), Table II. Conditions: 14 days, relative to glutamine. In kind it is in vivo. The procedure:
Donryu-strain male rats having a body weight -- 230-270g (ten rats to a group) were not fed for 24 hours and then were anesthesized with ether. A laparotomy was performed. The stomach was exposed and 0.05 ml of 10% acetic acid was injected into the subserosal layer in the glandular part of the anterior wall to produce the experimental ulcers. The abdomen was then closed. […] […] The size of the ulcer (length and width) in the glandular part of the stomach was measured and the product of the length and width was used as the ulcer index (UI). The curative ratio (%) was calculated from the ulcer index of the rats which were medicated as compared with the index of the control group. [formula] Acetic acid ulcers in rats are known to undergo partial healing and re-ulceration so that these ulcers resemble human chronic ulcers, both histologically and functionally. In order to examine the anti-ulcerous effects on chronic ulcers, the compounds of this invention were orally administered to rats for 14 days, from the 41st day to the 54th day after ulceration with acetic acid. On the 55th day, the rats were sacrificed and the size of the ulcer was measured. The procedure used in ulceration and in the determination of effects are the same as those described hereinbefore.

In data set [1] (200 mg/kg/day), `COc1ccc(C(=O)N[C@H](CO)Cc2ccc(O)cc2)cc1` returned a Relative therapeutic effect of 1.76. Also, in data set [2], the LD50 was over 4000 mg/kg.

`COc1ccc(COC(=O)N[C@H](CO)Cc2ccc(O)cc2)cc1` [drawing 11] came in with a Relative therapeutic effect in data set [1] (200 mg/kg/day) of 1.75. For the same compound, in data set [2], the LD50 was over 4000 mg/kg.

In turn, `COC(Cc1ccccc1)C(=O)N[C@H](CO)Cc1ccc(O)cc1` (stereo partly drawn) [N-(α -methoxy-β-phenylpropionyl)-tyrosinol] returned an LD50 in data set [2] of over 4000 mg/kg. On to `O=C(N[C@@H](Cc1ccccc1)C(=O)N[C@@H](Cc1ccc(O)cc1)C(=O)O)c1ccccc1` [Compound (II) R3 =H, N-benzoylphenylalanyltyrosine] (Bz-Phe-Tyr-OH), for which, in data set [1] (200 mg/kg/day), the Relative therapeutic effect came to 1.19. This compound also registered an LD50 in data set [2] of over 4000 mg/kg. The compound `COc1ccccc1C(=O)N[C@H](CO)Cc1ccc(O)cc1` showed a Relative therapeutic effect in data set [1] (200 mg/kg/day) of 1.29. In data set [3] (50 mg/kg/day), `COc1ccc(COC(=O)N[C@H](CO)Cc2ccc(O)cc2)cc1` [drawing 17] displayed a Relative therapeutic effect of 7.72. Consider `COc1cc(C(=O)N[C@H](CO)Cc2ccc(O)cc2)cc(OC)c1OC`, for which the Relative therapeutic effect in data set [1] (200 mg/kg/day) is listed as 1.43. The LD50 in data set [2] is over 4000 mg/kg.

On to `O=C(N[C@H](CO)Cc1ccc(O)cc1)OCC1CCCCC1`, for which, in data set [1] (200 mg/kg/day), the Relative therapeutic effect came out at 1.60. Same read-out and setting: for `N[C@@H](Cc1ccc(O)cc1)C(=O)O` [Tyrosine, tyrosine] the value was 0.37; for `O=C(N[C@H](CO)Cc1ccc(O)cc1)OCc1ccc(F)cc1`, 1.14. In the case of `Nc1ccc(C(=O)N[C@H](CO)Cc2ccc(O)cc2)cc1`, in data set [1] (200 mg/kg/day), the Relative therapeutic effect came out at 1.24.

Take `CC(C)=CCCC(C)=CCCC(C)=CCCC(=O)OC/C=C(\C)CCC=C(C)C` [Gefarnate, geranyl farnesylacetate, reference compound]: the Relative therapeutic effect in data set [1] (200 mg/kg/day) is recorded as 1.06; in data set [3] (200 mg/kg/day), 0.77. In data set [1] (200 mg/kg/day), `O=C(N[C@H](CO)Cc1ccc(O)cc1)OCc1ccc(Cl)cc1` yielded a Relative therapeutic effect of 0.81. Regarding `Cc1ccc(COC(=O)N[C@H](CO)Cc2ccc(O)cc2)cc1`, the Relative therapeutic effect in data set [1] (200 mg/kg/day) is given as 1.81. In data set [2], this compound gave an LD50 of over 4000 mg/kg. In data set [3] (50 mg/kg/day), `COc1ccc(C(=O)N[C@@H](Cc2ccccc2)C(=O)N[C@@H](Cc2ccc(O)cc2)C(=O)O)cc1` [Compound (II) R3 =CH3 O, N-(4-methoxybenzoyl)-phenylalanyltyrosine] yielded a Relative therapeutic effect of 7.85. In data set [2], this compound had an LD50 of over 4000 mg/kg. In turn, `COc1ccc(C[C@@H](CO)NC(=O)OCc2ccc(OC)c(OC)c2)cc1` [O-methyl-N-(3,4-dimethoxybenzyloxycarbonyl)-tyrosinol] yielded a Relative therapeutic effect in data set [1] (200 mg/kg/day) of 0.98. In data set [2], the LD50 was over 4000 mg/kg. As for `COc1ccc(C[C@@H](CO)NC(=O)OCc2ccccc2)cc1` [O-methyl-N-benzyloxycarbonyltyrosinol], the Relative therapeutic effect in data set [1] (200 mg/kg/day) was 1.03. Further, in data set [2], the LD50 is over 4000 mg/kg. On to `NC(=O)CC[C@H](N)C(=O)O` [Glutamine, glutamine, reference compound], for which the results for the Relative therapeutic effect in data set [1] (200 mg/kg/day), in data set [1] (1000 mg/kg/day) and in data set [3] (1000 mg/kg/day) were 0.30, 1.00 and 1.00, respectively.
